Source: US11084784B2, “ROR-gamma modulators and uses thereof” (PIRAMAL ENTERPRISES LIMITED, priority 2014, dated 2021)

The compounds below were run against RORγt (Homo sapiens (Human), UniProt P51449) (assay: RORγt luciferase reporter assay in CHO-K1 cells (RORgamma inhibitory activity)). Settings: CHO-K1 cells stably transfected with RORγt, transiently transfected with pFR Luc; 18-20 hours treatment; luminescence; read-out: In-vitro IC50 value IC50.
Chain of RORγt (P51449 other isoform, or with tags, fused parts or gaps, species assumed): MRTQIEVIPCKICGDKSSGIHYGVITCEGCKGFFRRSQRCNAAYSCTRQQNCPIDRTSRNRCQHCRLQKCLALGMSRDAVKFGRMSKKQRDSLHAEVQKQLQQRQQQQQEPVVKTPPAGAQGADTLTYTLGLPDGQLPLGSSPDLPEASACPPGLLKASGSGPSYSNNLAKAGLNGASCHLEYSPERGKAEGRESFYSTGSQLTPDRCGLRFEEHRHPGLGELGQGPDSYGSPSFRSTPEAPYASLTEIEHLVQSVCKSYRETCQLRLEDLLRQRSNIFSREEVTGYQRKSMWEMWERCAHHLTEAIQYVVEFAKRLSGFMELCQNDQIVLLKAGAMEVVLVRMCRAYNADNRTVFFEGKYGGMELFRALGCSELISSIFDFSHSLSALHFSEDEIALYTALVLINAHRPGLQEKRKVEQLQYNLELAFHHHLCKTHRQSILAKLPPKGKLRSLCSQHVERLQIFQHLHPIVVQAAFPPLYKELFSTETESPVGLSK
Assay type: cell-based
Method: The representative compounds are referred to as the test compounds.
CHO-K1 cells stably transfected with RORγt are maintained in MEM-EBS with 5% FBS, 1% penicillin streptomycin solution and 1 mg/mL G418. The cells are seeded at a density of 200000 cells/mL in white 96 well flat bottom plate. Post 16-18 hours incubation, the cells are transiently transfected with pFR Luc (50 ng/well DNA) for four hours. The cells are then treated with different doses of the test compounds in MEM EBS media with 10% FBS and 1% penicillin streptomycin. DMSO is used as vehicle control. After 18-20 hours treatment, the cells are lysed with lysis buffer (40 mM HEPES, 20 mM EGTA, 50 mM β-glycerophosphate, 10% glycerol and 1% Triton X-100 in distilled water) for 0.5 hour and luminescence is read using Tecan Safire reader at 1000 milli second integration time.
Compound `CCS(=O)(=O)c1ccc(CC(=O)Nc2ccc(OC3CCCCC3)c(C(F)(F)F)c2)cc1` [Example 23, N-(4-(Cyclohexyloxy)-3-(trifluoromethyl)phenyl)-2-(4-(ethylsulfonyl)phenyl)acetamide] has an IC50 of 50 to 100 nM.
Work on `CCS(=O)(=O)c1ccc(CC(=O)Nc2ccc(C3=CCC(=O)CC3)c(C(F)(F)F)c2)cc1` [Example 24, 2-(4-(Ethylsulfonyl)phenyl)-N-(4′-oxo-2-(trifluoromethyl)-2′,3′,4′,5′-tetrahydro-[1,1′-biphenyl]-4-yl)acetamide] yielded an IC50 of 0.01 to 50 nM.
In the case of `CCS(=O)(=O)c1ccc(CC(=O)Nc2ccc(C3CCCCC3)cc2)cc1` [Example 25, N-(4-Cyclohexylphenyl)-2-(4-(ethylsulfonyl)phenyl)acetamide], the IC50 is reported as 0.01 to 50 nM.
For `CCS(=O)(=O)c1ccc(CC(=O)Nc2ccc(C3=CCC(O)CC3)c(C(F)(F)F)c2)cc1` (centres unmarked) [Example 34, 2-(4-(Ethylsulfonyl)phenyl)-N-(4′-hydroxy-2-(trifluoromethyl)-2′,3′,4′,5′-tetrahydro-[1,1′-biphenyl]-4-yl)acetamide], the IC50 was 0.01 to 50 nM.
`CCS(=O)(=O)c1ccc(CC(=O)Nc2ccc3c(c2)CCCC3(O)c2ccc(OC)cc2)cc1` (centres unmarked) [Example 43, 2-(4-(Ethylsulfonyl)phenyl)-N-(5-hydroxy-5-(4-methoxyphenyl)-5,6,7,8-tetrahydronaphthalen-2-yl)acetamide] gave an IC50 of 0.01 to 50 nM.
